Non-standard residues stand in square brackets, D forms with d. Residues, ends and D or L forms follow the SMILES beside them. 1Nal = N[C@@H](Cc1cccc2ccccc12)C(=O)O; αMeS = C[C@](N)(CO)C(=O)O; Nle = CCCC[C@H](N)C(=O)O; Aib = CC(C)(N)C(=O)O
target: T1, RXFP1 (Homo sapiens, UniProt Q9HBX9); test: OVCAR5 cAMP assay (RXFP1 agonist activity, HTRF); conditions: OVCAR-5, read-out: cAMP assay in OVCAR 5 cells Emax, maximal intracellular cAMP relative to H2-relaxin in the same test occasion
T1 sequence (Q9HBX9 1-757): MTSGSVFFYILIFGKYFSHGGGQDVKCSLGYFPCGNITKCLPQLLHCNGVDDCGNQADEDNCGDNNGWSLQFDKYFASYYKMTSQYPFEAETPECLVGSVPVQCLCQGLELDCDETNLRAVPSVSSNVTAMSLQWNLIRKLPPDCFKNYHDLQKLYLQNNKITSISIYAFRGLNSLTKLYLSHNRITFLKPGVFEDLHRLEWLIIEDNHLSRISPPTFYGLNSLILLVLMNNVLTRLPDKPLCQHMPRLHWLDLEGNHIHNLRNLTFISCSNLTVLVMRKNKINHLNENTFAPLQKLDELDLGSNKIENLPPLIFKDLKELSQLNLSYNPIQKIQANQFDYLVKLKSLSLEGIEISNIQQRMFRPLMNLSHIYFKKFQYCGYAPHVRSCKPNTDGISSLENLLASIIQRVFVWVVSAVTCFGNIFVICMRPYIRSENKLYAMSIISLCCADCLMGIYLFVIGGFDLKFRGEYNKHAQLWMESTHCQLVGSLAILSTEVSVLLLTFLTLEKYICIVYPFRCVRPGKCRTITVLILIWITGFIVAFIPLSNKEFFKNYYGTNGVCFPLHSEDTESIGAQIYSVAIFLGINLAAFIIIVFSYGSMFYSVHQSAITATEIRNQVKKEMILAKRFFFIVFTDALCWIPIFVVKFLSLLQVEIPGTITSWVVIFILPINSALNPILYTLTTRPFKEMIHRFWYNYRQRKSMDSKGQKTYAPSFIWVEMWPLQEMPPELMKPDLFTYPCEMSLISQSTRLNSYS

Point of comparison: CC[C@H](C)[C@H](NC(=O)[C@H](CCC(N)=O)NC(=O)[C@H](C)NC(=O)[C@H](CCCNC(=N)N)NC(=O)[C@@H](NC(=O)[C@H](CCCCN)NC(=O)[C@H](CCC(=O)O)NC(=O)[C@H](CCCNC(=N)N)NC(=O)CNC(=O)[C@H](CCC(=O)O)NC(=O)[C@H](CC(C)C)NC(C)=O)C(C)C)C(=O)NC(C)(C)C(=O)NC(C)(C)C(=O)N[C@@H](CCC(=O)O)C(=O)NCC(=O)N[C@@H](CCSC)C(=O)N[C@@H](CO)C(=O)N[C@H](C(=O)N[C@@H](Cc1c[nH]c2ccccc12)C(=O)N[C@@H](CO)C(=O)N[C@@H](CCCCN)C(=O)N[C@@H](CCCNC(=N)N)C(N)=O)[C@@H](C)O [compound 40] (Ac-LEGREKVRAQI[Aib][Aib]EGMSTWSKR-NH2), Emax 103%. Against it:
- CCCC[C@H](NC(=O)CNC(=O)[C@H](CCC(=O)O)NC(=O)C(C)(C)NC(=O)C(C)(C)NC(=O)[C@@H](NC(=O)[C@H](CCCCNC(C)=O)NC(=O)[C@H](C)NC(=O)[C@H](CCCNC(=N)N)NC(=O)[C@@H](NC(=O)[C@H](CCCCN)NC(=O)[C@H](CCC(=O)O)NC(=O)[C@H](CCCNC(=N)N)NC(=O)CNC(=O)[C@H](CCC(=O)O)NC(=O)[C@H](CC(C)C)NC(C)=O)C(C)C)[C@@H](C)CC)C(=O)N[C@@H](CO)C(=O)N[C@H](C(=O)N[C@@H](Cc1c[nH]c2ccccc12)C(=O)N[C@@H](CO)C(=O)NC(C)(C)C(=O)N[C@@H](CCCNC(=N)N)C(=O)N[C@@H](CCCCN)C(=O)N[C@@H](CC(C)C)C(N)=O)[C@@H](C)O [compound 32] (Ac-LEGREKVRAK(Ac)I[Aib][Aib]EG[Nle]STWS[Aib]RKL-NH2) — lower, 95%
- CCCC[C@H](NC(=O)CNC(=O)[C@H](CCC(=O)O)NC(=O)C(C)(C)NC(=O)C(C)(C)NC(=O)[C@@H](NC(=O)[C@H](CCC(N)=O)NC(=O)[C@H](CCCCNC(C)=O)NC(=O)[C@H](CCCNC(=N)N)NC(=O)[C@@H](NC(=O)[C@H](CCCCN)NC(=O)[C@H](CCC(=O)O)NC(=O)[C@H](CCCNC(=N)N)NC(=O)CNC(=O)[C@H](CCC(=O)O)NC(=O)[C@H](CC(C)C)NC(C)=O)C(C)C)[C@@H](C)CC)C(=O)N[C@@H](CO)C(=O)N[C@H](C(=O)N[C@@H](Cc1c[nH]c2ccccc12)C(=O)N[C@@H](CO)C(=O)NC(C)(C)C(=O)N[C@@H](CCCNC(=N)N)C(=O)N[C@@H](CCCCN)C(=O)N[C@@H](CCCCN)C(N)=O)[C@@H](C)O [compound 33] (Ac-LEGREKVRK(Ac)QI[Aib][Aib]EG[Nle]STWS[Aib]RKK-NH2) — higher, 105%
- CCCC[C@H](NC(=O)CNC(=O)[C@H](CCC(=O)O)NC(=O)C(C)(C)NC(=O)C(C)(C)NC(=O)[C@@H](NC(=O)C(C)(C)NC(=O)[C@H](CCCCNC(C)=O)NC(=O)[C@H](CCCNC(=N)N)NC(=O)[C@@H](NC(=O)[C@H](CCCCN)NC(=O)[C@H](CCC(=O)O)NC(=O)[C@H](CCCNC(=N)N)NC(=O)CNC(=O)[C@H](CCC(=O)O)NC(=O)[C@H](CC(C)C)NC(C)=O)C(C)C)[C@@H](C)CC)C(=O)N[C@@H](CO)C(=O)N[C@H](C(=O)N[C@@H](Cc1c[nH]c2ccccc12)C(=O)N[C@@H](CO)C(=O)NC(C)(C)C(=O)N[C@@H](CCCNC(=N)N)C(=O)N[C@@H](CCCCN)C(=O)N[C@@H](CCCCN)C(N)=O)[C@@H](C)O [compound 34] (Ac-LEGREKVRK(Ac)[Aib]I[Aib][Aib]EG[Nle]STWS[Aib]RKK-NH2) — lower, 96%
- CC[C@H](C)[C@H](NC(=O)[C@H](CCC(N)=O)NC(=O)[C@H](C)NC(=O)[C@H](CCCNC(=N)N)NC(=O)[C@@H](NC(=O)[C@H](CCCCN)NC(=O)[C@H](CCC(=O)O)NC(=O)[C@H](CCCNC(=N)N)NC(=O)CNC(=O)[C@H](CCC(=O)O)NC(=O)[C@H](CC(C)C)NC(C)=O)C(C)C)C(=O)NC(C)(C)C(=O)NC(C)(C)C(=O)N[C@@H](CCC(=O)O)C(=O)NCC(=O)N[C@@H](CCC(N)=O)C(=O)N[C@@H](CO)C(=O)N[C@H](C(=O)N[C@@H](Cc1c[nH]c2ccccc12)C(=O)N[C@@H](CO)C(=O)NC(C)(C)C(=O)N[C@@H](CCCNC(=N)N)C(=O)N[C@@H](CCCCN)C(=O)N[C@@H](CCCCN)C(N)=O)[C@@H](C)O [compound 35] (Ac-LEGREKVRAQI[Aib][Aib]EGQSTWS[Aib]RKK-NH2) — lower, 98%
- CCCC[C@H](NC(=O)CNC(=O)[C@H](CCC(=O)O)NC(=O)C(C)(C)NC(=O)C(C)(C)NC(=O)[C@@H](NC(=O)[C@H](CCC(N)=O)NC(=O)[C@H](C)NC(=O)[C@H](CCCNC(=N)N)NC(=O)[C@@H](NC(=O)[C@H](CCCCN)NC(=O)[C@H](CCC(=O)O)NC(=O)[C@H](CCCNC(=N)N)NC(=O)CNC(=O)[C@H](CCC(=O)O)NC(=O)[C@H](CC(C)C)NC(C)=O)C(C)C)[C@@H](C)CC)C(=O)N[C@@H](CO)C(=O)N[C@@H](CCCCN)C(=O)N[C@@H](Cc1cccc2ccccc12)C(=O)N[C@@H](CO)C(=O)N[C@@H](CCCCN)C(=O)N[C@@H](CCCNC(=N)N)C(N)=O [compound 36] (Ac-LEGREKVRAQI[Aib][Aib]EG[Nle]SK[1Nal]SKR-NH2) — the same, 103%
- CCCC[C@H](NC(=O)CNC(=O)[C@H](CCC(=O)O)NC(=O)C(C)(C)NC(=O)C(C)(C)NC(=O)[C@@H](NC(=O)[C@H](CCC(N)=O)NC(=O)[C@H](C)NC(=O)[C@H](CCCNC(=N)N)NC(=O)[C@@H](NC(=O)[C@H](CCCCN)NC(=O)[C@H](CCC(=O)O)NC(=O)[C@H](CCCNC(=N)N)NC(=O)CNC(=O)[C@H](CCC(=O)O)NC(=O)[C@H](CC(C)C)NC(C)=O)C(C)C)[C@@H](C)CC)C(=O)N[C@@H](CO)C(=O)N[C@H](C(=O)N[C@@H](Cc1cccc2ccccc12)C(=O)N[C@@H](CO)C(=O)N[C@@H](CCCCN)C(=O)N[C@@H](CCCNC(=N)N)C(N)=O)[C@@H](C)O [compound 37] (Ac-LEGREKVRAQI[Aib][Aib]EG[Nle]ST[1Nal]SKR-NH2) — higher, 104%
- CC[C@H](C)[C@H](NC(=O)[C@H](CCC(N)=O)NC(=O)[C@H](C)NC(=O)[C@H](CCCNC(=N)N)NC(=O)[C@@H](NC(=O)[C@H](CCCCN)NC(=O)[C@H](CCC(=O)O)NC(=O)[C@H](CCCNC(=N)N)NC(=O)CNC(=O)[C@H](CCC(=O)O)NC(=O)[C@H](CC(C)C)NC(C)=O)C(C)C)C(=O)NC(C)(C)C(=O)NC(C)(C)C(=O)N[C@@H](CCC(=O)O)C(=O)NCC(=O)N[C@@H](CCSC)C(=O)N[C@@H](CO)C(=O)N[C@@H](CCCCN)C(=O)N[C@@H](Cc1c[nH]c2ccccc12)C(=O)N[C@@H](CO)C(=O)N[C@@H](CCCCN)C(=O)N[C@@H](CCCNC(=N)N)C(N)=O [compound 38] (Ac-LEGREKVRAQI[Aib][Aib]EGMSKWSKR-NH2) — lower, 102%
- CC[C@H](C)[C@H](NC(=O)[C@H](CCC(N)=O)NC(=O)[C@H](C)NC(=O)[C@H](CCCNC(=N)N)NC(=O)[C@@H](NC(=O)[C@H](CCCCN)NC(=O)[C@H](CCC(=O)O)NC(=O)[C@H](CCCNC(=N)N)NC(=O)CNC(=O)[C@H](CCC(=O)O)NC(=O)[C@H](CC(C)C)NC(C)=O)C(C)C)C(=O)NC(C)(C)C(=O)NC(C)(C)C(=O)N[C@@H](CCC(=O)O)C(=O)NCC(=O)N[C@@H](CCSC)C(=O)N[C@@H](CO)C(=O)N[C@@](C)(CO)C(=O)N[C@@H](Cc1c[nH]c2ccccc12)C(=O)N[C@@H](CO)C(=O)N[C@@H](CCCCN)C(=O)N[C@@H](CCCNC(=N)N)C(N)=O [compound 39] (Ac-LEGREKVRAQI[Aib][Aib]EGMS[αMeS]WSKR-NH2) — lower, 99%
- CC[C@H](C)[C@H](NC(=O)[C@H](CCC(N)=O)NC(=O)[C@H](C)NC(=O)[C@H](CCCNC(=N)N)NC(=O)[C@@H](NC(=O)[C@H](CCCCN)NC(=O)[C@H](CCC(=O)O)NC(=O)[C@H](CCCNC(=N)N)NC(=O)CNC(=O)[C@H](CCC(=O)O)NC(=O)[C@H](CC(C)C)NC(C)=O)C(C)C)C(=O)NC(C)(C)C(=O)NC(C)(C)C(=O)N[C@@H](CCC(=O)O)C(=O)NCC(=O)N[C@@H](CCSC)C(=O)N[C@@H](CO)C(=O)N[C@H](C(=O)N[C@@H](Cc1c[nH]c2ccccc12)C(=O)N[C@@H](CO)C(=O)NC(C)(C)C(=O)N[C@@H](CCCNC(=N)N)C(N)=O)[C@@H](C)O [compound 41] (Ac-LEGREKVRAQI[Aib][Aib]EGMSTWS[Aib]R-NH2) — higher, 106%
- CC[C@H](C)[C@H](NC(=O)[C@H](CCC(N)=O)NC(=O)C(C)(C)NC(=O)[C@H](CCCNC(=N)N)NC(=O)[C@@H](NC(=O)[C@H](CCCCN)NC(=O)[C@H](CCC(=O)O)NC(=O)[C@H](CCCNC(=N)N)NC(=O)CNC(=O)[C@H](CCC(=O)O)NC(=O)[C@H](CC(C)C)NC(C)=O)C(C)C)C(=O)NC(C)(C)C(=O)NC(C)(C)C(=O)N[C@@H](CCC(=O)O)C(=O)NCC(=O)N[C@@H](CCSC)C(=O)N[C@@H](CO)C(=O)N[C@H](C(=O)N[C@@H](Cc1c[nH]c2ccccc12)C(=O)N[C@@H](CO)C(=O)NC(C)(C)C(=O)N[C@@H](CCCNC(=N)N)C(N)=O)[C@@H](C)O [compound 42] (Ac-LEGREKVR[Aib]QI[Aib][Aib]EGMSTWS[Aib]R-NH2) — higher, 104%

same assay, conditions: cAMP assay in OVCAR 5 cells EC50 (nM), OVCAR5 cells expressing endogenous RXFP1; cAMP by HTRF; 30 min at 37° C.; 1 mM IBMX

Point of comparison: CC[C@H](C)[C@H](NC(=O)[C@H](CCC(N)=O)NC(=O)[C@H](C)NC(=O)[C@H](CCCNC(=N)N)NC(=O)[C@@H](NC(=O)[C@H](CCCCN)NC(=O)[C@H](CCC(=O)O)NC(=O)[C@H](CCCNC(=N)N)NC(=O)CNC(=O)[C@H](CCC(=O)O)NC(=O)[C@H](CC(C)C)NC(C)=O)C(C)C)C(=O)NC(C)(C)C(=O)NC(C)(C)C(=O)N[C@@H](CCC(=O)O)C(=O)NCC(=O)N[C@@H](CCSC)C(=O)N[C@@H](CO)C(=O)N[C@@](C)(CO)C(=O)N[C@@H](Cc1c[nH]c2ccccc12)C(=O)N[C@@H](CO)C(=O)N[C@@H](CCCCN)C(=O)N[C@@H](CCCNC(=N)N)C(N)=O [compound 39] (Ac-LEGREKVRAQI[Aib][Aib]EGMS[αMeS]WSKR-NH2), EC50 9.5 nM. Against it:
- CC[C@H](C)[C@H](NC(=O)[C@H](CCC(N)=O)NC(=O)C(C)(C)NC(=O)[C@H](CCCNC(=N)N)NC(=O)[C@@H](NC(=O)[C@H](CCCCN)NC(=O)[C@H](CCC(=O)O)NC(=O)[C@H](CCCNC(=N)N)NC(=O)CNC(=O)[C@H](CCC(=O)O)NC(=O)[C@H](CC(C)C)NC(C)=O)C(C)C)C(=O)NC(C)(C)C(=O)NC(C)(C)C(=O)N[C@@H](CCC(=O)O)C(=O)NCC(=O)N[C@@H](CCSC)C(=O)N[C@@H](CO)C(=O)N[C@H](C(=O)N[C@@H](Cc1c[nH]c2ccccc12)C(=O)N[C@@H](CO)C(=O)NC(C)(C)C(=O)N[C@@H](CCCNC(=N)N)C(N)=O)[C@@H](C)O [compound 42] (Ac-LEGREKVR[Aib]QI[Aib][Aib]EGMSTWS[Aib]R-NH2) — 26-fold higher, 251 nM
